# In EPA's ToxRefDB 2:
# Legend:
# mouse [1] = details: Subchronic inhalation toxicity, cd1, Whole-Body, dose end: 13 week, group: systemic
# rabbit [2] = details: Subchronic inhalation toxicity, new zealand white, Whole-Body, dose end: 13 week, group: systemic
# dog [3] = details: Subchronic inhalation toxicity, beagle, Whole-Body, dose end: 13 week, group: systemic, systemic / in life observation / body weight / body weight + systemic / in life observation / body weight / body weight gain + systemic / …
# rabbit [4] = details: Subchronic inhalation toxicity, new zealand white, Whole-Body, dose end: 14 day, group: systemic, systemic / pathology microscopic / brain / necrosis + systemic / pathology microscopic / brain / vacuolization + systemic / pathology …
# rat [5] = details: Multigenerational reproductive toxicity study, sprague dawley, Inhalation, Whole-Body, dose end: 2 generation
# mouse [6] = details: Carcinogenicity; cd1; Inhalation; Whole-Body; dose end: 18 month; group: systemic; systemic / in life observation / body weight / body weight gain + systemic / in life observation / mortality / mortality + systemic / …
# rat [7] = details: Subchronic oral toxicity in rodents, fischer, Inhalation, Whole-Body, dose end: 90 day, group: systemic
# rat [8] = details: Multigenerational reproductive toxicity study, sprague dawley, Inhalation, Whole-Body, dose end: 2 generation; remark: listed apart in the source
# rat [9] = details: Subchronic inhalation toxicity, fischer, Whole-Body, dose end: 14 day, group: systemic
# rat [10] = details: Combined chronic toxicity/carcinogenicity, fischer, Inhalation, Whole-Body, dose end: 104 week, group: systemic
# dog [11] = details: Chronic toxicity; beagle; Inhalation; Whole-Body; dose end: 12 month; group: systemic; systemic / in life observation / body weight / body weight gain + systemic / in life observation / clinical signs / dental fluorosis + …
# rat [12] = details: Multigenerational reproductive toxicity study, other, Oral, Feed, dose end: 2 generation
# dog [13] = details: Chronic toxicity, beagle, Oral, Capsule, dose end: 52 week, group: systemic
# rat [14] = details: Subchronic oral toxicity in rodents, fischer, Feed, dose end: 13 week, group: systemic
# mouse [15] = details: Carcinogenicity; cd1; Oral; Feed; dose end: 78 week; group: systemic; systemic / in life observation / clinical signs / alopecia + systemic / in life observation / mortality / mortality + systemic / pathology …
# rat [16] = details: Prenatal developmental toxicity study, wistar, Oral, Gavage/Intubation, dose end: 16 GD
# rabbit [17] = details: Prenatal developmental toxicity study, new zealand white, Oral, Gavage/Intubation, dose end: 20 GD
# rat [18] = details: Subchronic oral toxicity in rodents, wistar, Feed, dose end: 90 day, group: systemic
# [19] = systemic / in life observation / body weight / body weight + systemic / in life observation / body weight / body weight gain + systemic / …
# [20] = systemic / pathology microscopic / nose / inflammation + systemic / clinical chemistry / flouride / fluoride
# [21] = group: offspring, systemic / in life observation / body weight / offspring (pup) weight
# [22] = group: parental, systemic / pathology gross / lung / foci + systemic / pathology microscopic / lung / alveolar macrophages
# [23] = group: parental, systemic / pathology gross / lung / foci + systemic / pathology microscopic / lung / alveolar macrophages + systemic / in life observation…
# [24] = systemic / organ weight / brain / absolute + systemic / in life observation / clinical signs / tooth-mottling + systemic / pathology …
# [25] = systemic / pathology microscopic / nose / inflammation
# [26] = group: parental, systemic / pathology microscopic / lung / alveolar macrophages + systemic / in life observation / body weight / body weight + systemic / in …
# [27] = group: parental, systemic / pathology microscopic / lung / alveolar macrophages + systemic / pathology gross / lung / foci
# [28] = systemic / pathology microscopic / kidney / hyperplasia + systemic / pathology microscopic / kidney / basophilia
# [29] = systemic / pathology microscopic / kidney / hyperplasia + systemic / pathology microscopic / kidney / basophilia + systemic / in life …
# [30] = systemic / in life observation / clinical signs / dental fluorosis
# [31] = systemic / in life observation / clinical signs / dental fluorosis + systemic / clinical chemistry / albumin / albumin + systemic / clinical…
# [32] = group: reproductive, reproductive / offspring survival early / dead fetuses / dead fetuses
# [33] = systemic / pathology microscopic / parathyroid gland / cyst + systemic / pathology microscopic / pituitary gland / cyst
# [34] = systemic / urinalysis / ph / ph
# [35] = group: developmental, developmental / developmental malformation / bone / delayed ossification + developmental / developmental malformation / bone / unossified + …
# [36] = group: maternal, systemic / in life observation / body weight / body weight gain + systemic / in life observation / food consumption / food consumption
# [37] = group: developmental, developmental / developmental malformation / bone / delayed ossification + developmental / developmental malformation / bone / short …
# [38] = group: maternal, systemic / in life observation / body weight / body weight loss + systemic / in life observation / clinical signs / inappetence + systemic…
# [39] = systemic / organ weight / heart / absolute + systemic / organ weight / heart / relative to body weight + systemic / clinical chemistry / …
compound,measurement,setting,value
O=S(=O)(F)F [Sulfuryl fluoride],LEL,mouse [1]; systemic / clinical chemistry / flouride / fluoride,30 ppm
same,LOAEL,mouse [1]; [19],100 ppm
same,NEL,mouse [1]; [19],10 ppm
same,NOAEL,mouse [1]; [19],30 ppm
same,LOAEL,rabbit [2]; [19],100 ppm
same,NOAEL,rabbit [2]; [19],29.8 ppm
same,LEL,rabbit [2]; [20],29.8 ppm
same,NEL,rabbit [2]; [20],< 29.8 ppm
same,LEL,dog [3],200 ppm
same,LOAEL,dog [3],200 ppm
same,NEL,dog [3],100 ppm
same,NOAEL,dog [3],100 ppm
same,LEL,rabbit [4],90 mg/kg/day
same,LOAEL,rabbit [4],90 mg/kg/day
same,NEL,rabbit [4],30 mg/kg/day
same,NOAEL,rabbit [4],30 mg/kg/day
same,LEL,rat [5]; [21],108 mg/kg/day
same,LOAEL,rat [5]; [21],108 mg/kg/day
same,NEL,rat [5]; [21],14 mg/kg/day
same,NOAEL,rat [5]; [21],14 mg/kg/day
same,LEL,rat [5]; [22],14 mg/kg/day
same,LOAEL,rat [5]; [22],14 mg/kg/day
same,NEL,rat [5]; [23],3.6 mg/kg/day
same,NOAEL,rat [5]; [23],3.6 mg/kg/day
same,LEL,mouse [6],79.3 mg/kg/day
same,LOAEL,mouse [6],79.3 mg/kg/day
same,NEL,mouse [6],19.8 mg/kg/day
same,NOAEL,mouse [6],19.8 mg/kg/day
same,LOAEL,rat [7]; [24],5 mg/kg/day
same,NOAEL,rat [7]; [24],1.49 mg/kg/day
same,LEL,rat [7]; [25],1.49 mg/kg/day
same,NEL,rat [7]; [25],< 1.49 mg/kg/day
same,LEL,rat [8]; [21],108 mg/kg/day
same,LOAEL,rat [8]; [21],108 mg/kg/day
same,NEL,rat [8]; [21],14 mg/kg/day
same,NOAEL,rat [8]; [21],14 mg/kg/day
same,NEL,rat [8]; [26],3.6 mg/kg/day
same,NOAEL,rat [8]; [26],3.6 mg/kg/day
same,LEL,rat [8]; [27],14 mg/kg/day
same,LOAEL,rat [8]; [27],14 mg/kg/day
same,LEL,rat [9]; [28],249 mg/kg/day
same,LOAEL,rat [9]; [28],249 mg/kg/day
same,NEL,rat [9]; [29],83 mg/kg/day
same,NOAEL,rat [9]; [29],83 mg/kg/day
same,LEL,rat [10]; [30],20 ppm
same,LOAEL,rat [10]; [30],20 ppm
same,NEL,rat [10]; [31],5 ppm
same,NOAEL,rat [10]; [31],5 ppm
same,LEL,dog [11],80 ppm
same,LOAEL,dog [11],80 ppm
same,NEL,dog [11],20 ppm
same,NOAEL,dog [11],20 ppm
Cc1ccc(-c2c(Cl)nc(C#N)n2S(=O)(=O)N(C)C)cc1 [Cyazofamid],LEL,rat [12]; [21],1000 mg/kg/day
same,LOAEL,rat [12]; [21],> 1000 mg/kg/day
same,NEL,rat [12]; [21],100 mg/kg/day
same,NOAEL,rat [12]; [21],≥ 1000 mg/kg/day
same,LEL,rat [12]; [32],1000 mg/kg/day
same,LOAEL,rat [12]; [32],> 1000 mg/kg/day
same,NEL,rat [12]; [32],100 mg/kg/day
same,NOAEL,rat [12]; [32],≥ 1000 mg/kg/day
same,LOAEL,dog [13]; [33],1000 mg/kg/day
same,NEL,dog [13]; [33],40 mg/kg/day
same,NOAEL,dog [13]; [33],200 mg/kg/day
same,LEL,dog [13]; systemic / pathology microscopic / pituitary gland / cyst,200 mg/kg/day
same,LOAEL,rat [14]; systemic / pathology microscopic / kidney / basophilia + systemic / urinalysis / protein / protein,294 mg/kg/day
same,NOAEL,rat [14]; systemic / pathology microscopic / kidney / basophilia + systemic / urinalysis / protein / protein + systemic / urinalysis / ph / ph + …,29.5 mg/kg/day
same,LEL,rat [14]; [34],0.6 mg/kg/day
same,NEL,rat [14]; [34],< 0.6 mg/kg/day
same,LEL,mouse [15],985 mg/kg/day
same,LOAEL,mouse [15],985 mg/kg/day
same,NEL,mouse [15],94.8 mg/kg/day
same,NOAEL,mouse [15],94.8 mg/kg/day
CCCCOC(=O)[C@@H](C)Oc1ccc(Oc2ccc(C(F)(F)F)cn2)cc1 [Fluazifop-P-butyl],LEL,rat [16]; [35],20 mg/kg/day
same,LOAEL,rat [16]; [35],20 mg/kg/day
same,NEL,rat [16]; [35],1 mg/kg/day
same,NOAEL,rat [16]; [35],1 mg/kg/day
same,LOAEL,"rat [16]; group: maternal, systemic / in life observation / body weight / body weight gain",300 mg/kg/day
same,LEL,rat [16]; [36],300 mg/kg/day
same,NEL,rat [16]; [36],20 mg/kg/day
same,NOAEL,rat [16]; [36],20 mg/kg/day
same,LEL,rabbit [17]; [37],50 mg/kg/day
same,LOAEL,rabbit [17]; [37],50 mg/kg/day
same,NEL,rabbit [17]; [37],10 mg/kg/day
same,NOAEL,rabbit [17]; [37],10 mg/kg/day
same,LEL,rabbit [17]; [38],50 mg/kg/day
same,LOAEL,rabbit [17]; [38],50 mg/kg/day
same,NEL,rabbit [17]; [38],10 mg/kg/day
same,NOAEL,rabbit [17]; [38],10 mg/kg/day
same,LEL,rat [18]; [39],0.5 mg/kg/day
same,NEL,rat [18]; [39],< 0.5 mg/kg/day
same,LOAEL,rat [18]; systemic / organ weight / spleen / absolute + systemic / organ weight / spleen / relative to body weight + systemic / hematology / …,5 mg/kg/day
same,NOAEL,rat [18]; systemic / organ weight / spleen / absolute + systemic / organ weight / spleen / relative to body weight + systemic / organ weight / brain…,0.5 mg/kg/day
